Legend:
cancer patients = experiment: Test Example 4: correlation between vaccination with individual peptides (or peptide sets) and OS, Cox proportional hazards regression; format: in vivo, human; settings: for HR: Cox proportional hazards regression, OS; for Correlation between immune responses and OS: Negative (mOS) / Correlation between immune responses and OS: Positive (mOS): Table 20, <64% neutrophil and ≥26% lymphocyte; for Correlation between immune responses and OS: Negative (mOS): vaccinated patients with negative IgG response; for Correlation between immune responses and OS: Positive (mOS): vaccinated patients with positive IgG response
Procedure: The Student's t-test and the chi-square test were used to compare quantitative and categorical variables, respectively. OS was calculated as the time in months from the date of clinical trial enrollment to death or to the date of last contact. Time-to-event endpoints were analyzed using the Kaplan-Meier method, and between-group comparison for OS was conducted using the log-rank test. Clinical efficacy of the individual peptides for OS was evaluated by univariate and multivariate analyses with the Cox proportional hazards regression model, and HR and 95% CI were calculated. All reported p-values were two-sided, and p-values less than 0.05 were considered significant. JMP version 12 or SAS version 9.4 software (SAS Institute Inc., Cary, N.C.) was used to perform all analyses.
Correlation levels of the 31 peptides for OS were evaluated by the Cox proportional hazards regression model.
Similarly, in the 2,085 advanced cancer patients (stage IV+recurrence) and the 503 non-advanced cancer patients (I-III stages) correlation levels of the 31 peptides for OS were evaluated by the Cox proportional hazards regression model. […]

[1] = system: anti-peptide IgG in plasma; experiment: Test Example 4: peptide-specific IgG titer pre and post vaccination, bead-based multiplexed Luminex assay; format: in vivo, human; settings: for Pre-vaccination IgG Negative (number of patients) / Pre-vaccination IgG Positive (number of patients): cut off 10 FIU; for Post vaccination IgG: number of (positive) patients among vaccinated: positive IgG response; for Pre-vaccination IgG Negative patients: number of 2,588 patients below 10 FIU; for Pre-vaccination IgG Positive patients: number of 2,588 patients with ≥10 FIU; for Post vaccination IgG: (positive) patients: number of vaccinated patients with positive IgG response; for Correlation between immune responses and OS: Negative (mOS): patients with negative post-vaccination IgG response to the peptide; for Correlation between immune responses and OS: Positive (mOS): patients with positive post-vaccination IgG response to the peptide
Procedure: As described previously, IgG titer specific to the antigen peptides in plasma was measured by bead-based multiplexed Luminex assay (Luminex, Austin, Tex.) before and after vaccination, i.e., at the end of each cycle or at the end of the clinical trial (Non-Patent Literature 4). In brief, 30 mL of peripheral blood was obtained before and after vaccination. Plasma was incubated with 100 μL of peptide-coupled color-coded beads for 2 hours at 25° C. on a plate shaker. After the incubation, the resultant mixture was washed with a vacuum manifold apparatus and incubated with 100 μL of biotinylated goat anti-human IgG (gamma chain-specific; Vector Laboratories, Burlingame, Calif.) for 1 hour at 25° C. on a plate shaker. The plate was then washed, followed by addition of 100 μL of streptavidin-PE (Life Technologies) to each well, and incubation for 30 minutes at 25° C. on a plate shaker. The resultant beads were washed 4 times, followed by addition of 100 μL of Tween-PBS to each well, and detection of fluorescence intensity units (FIU) on the beads using the Luminex system. The cutoff values of anti-peptide IgG were set to 10 FIU in 100-fold diluted samples.
Pre-vaccination peptide-specific IgG titers to 31 peptides were measured using a Luminex system. As a detectable IgG level, 10 FIU was employed as the cut off level, as reported previously (Noguchi M, et al., Cancer Immunol Immunother. 2013 May; 62(5): 919-29; Sasada T, et al., Current Medicinal Chemistry. 21: 2332-2345, 2014; Kibe S, et al., Cancer Immunology Research 2014; 2(12): 1154-62).
Post-vaccination lgG titers were measured at the ends of the first cycle and the second cycle.

[2] = Table 18, all 2,588 cases, vaccinated vs non-vaccinated
[3] = Table 18, all 2,588 cases, median OS of patients under PPV containing the peptide
[4] = Table 18, all 2,588 cases, median OS of patients under PPV not containing the peptide
[5] = Table 19, 2,085 advanced cancer patients (stage IV+recurrence)
[6] = Table 19, 2,085 advanced cancer patients (stage IV+recurrence), PPV containing the peptide
[7] = Table 19, 2,085 advanced cancer patients (stage IV+recurrence), PPV not containing the peptide
[8] = Table 21, patients showing both <64% neutrophil and ≥26% lymphocyte
[9] = Table 21, patients showing both <64% neutrophil and ≥26% lymphocyte, PPV containing the peptide
[10] = Table 21, patients showing both <64% neutrophil and ≥26% lymphocyte, PPV not containing the peptide
[11] = Table 20, patients showing both <64% neutrophil and ≥26% lymphocyte
[12] = patients showing detectable levels
[13] = patients showing positive responses

Sequence	HR (cancer patients; [2])	Vaccinate cases (mOS) (cancer patients; [3])	Non-vaccinate cases (mOS) (cancer patients; [4])	HR (cancer patients; [5])	Vaccinate cases (mOS) (cancer patients; [6])	Non-vaccinate cases (mOS) (cancer patients; [7])	Correlation between immune responses and OS: Negative (mOS) (cancer patients) [months]	Correlation between immune responses and OS: Positive (mOS) (cancer patients) [months]	HR (cancer patients; [8])	Vaccinate cases (mOS) (cancer patients; [9])	Non-vaccinate cases (mOS) (cancer patients; [10])	Post vaccination IgG Median (FIU) [1, 11]	Pre-vaccination IgG Median (FIU) [1, 11] [FIU]	Pre-vaccination IgG Negative (number of patients) [1, 11]	Pre-vaccination IgG Positive (number of patients) [1, 11]	Post vaccination IgG: number of (positive) patients among vaccinated [1, 11]	Pre-vaccination IgG Negative patients [1]	Pre-vaccination IgG Positive patients [1]	Post vaccination IgG: (positive) patients [1]	Pre-vaccination IgG Median (FIU) [1, 12] [FIU]	other results
LYAWEPSFL (listed as Homo sapiens) [MRP3-503]	0.9	133(14.1) M	1,417(11.9) M	0.9	108(13.4) M	1138(10.4) M	12.6	25.1	1.0	61(24.3) M	564(18.1) M	13,871 FIU	40	885	181	61(46)	2,121	467	133(85)	37	Post vaccination IgG Median (FIU) [1, 13]: 6,401 FIU; Correlation between immune responses and OS: Negative (mOS) [1]: 9.3 months; Correlation between immune responses and OS: Positive (mOS) [1]: 20.6 months
KYVGIEREM (listed as Homo sapiens) [EZH2-735]	0.9	69(13.3) M	1,481(11.9) M	0.9	53(11.9) M	1193(10.4) M	6.7	26.7	0.7	31(26.5) M	594(18.0) M	20,673 FIU	23	837	229	31(25)	2,030	558	69(51)	23	Post vaccination IgG Median (FIU) [1, 13]: 17,691 FIU; positive immune responses post-vaccination (positive of vaccinated cases) ([1]; patients who completed at least the first cycle): 51 of 69; Correlation between immune responses and OS: Negative (mOS) [1]: 5.3 months; Correlation between immune responses and OS: Positive (mOS) [1]: 24.7 months
VIQNLERGYR (listed as Homo sapiens) [Lck-449]	0.9	127(13.7) M	1,087(10.8) M	0.8	102(13.3) M	867(9.5) M	10	27.1	0.8	57(18.1) M	450(17.5) M	18,734 FIU	23	475	591	57(38)	1,182	1,406	127(67)	23	Post vaccination IgG Median (FIU) [1, 13]: 18,919 FIU; Correlation between immune responses and OS: Negative (mOS) [1]: 6.2 months; Correlation between immune responses and OS: Positive (mOS) [1]: 19.5 months
RYLTQETNKV (listed as Homo sapiens) [PTHrP-102]	0.9	204(13.3) M	1,346(11.9) M	0.9	168(11.8) M	1078(10.3) M	13.9	39	0.9	91(21.2) M	534(18.0) M	5,336 FIU	27	710	356	91(51)	1,702	886	204(99)	27	Post vaccination IgG Median (FIU) [1, 13]: 1,423 FIU; Correlation between immune responses and OS: Negative (mOS) [1]: 11.4 months; Correlation between immune responses and OS: Positive (mOS) [1]: 20.0 months
ILGELREKV (listed as Homo sapiens) [WHSC2-141]	1.0	325(12.1) M	725(11.1) M	1.0	271(11.1) M	591(10.1) M	12	28.2	1.0	134(18.0) M	300(16.6) M	18,171 FIU	38	261	805	134(91)	680	1,908	325(173)	39	Post vaccination IgG Median (FIU) [1, 13]: 13,078 FIU; Correlation between immune responses and OS: Negative (mOS) [1]: 7.7 months; Correlation between immune responses and OS: Positive (mOS) [1]: 19.0 months
NVLHFFNAPL (listed as Homo sapiens) [HNRPL-501]	1.0	355(12.1) M	1,107(11.6) M	1.0	291(10.4) M	897(10.3) M	10.6	28.2	0.9	148(19.6) M	445(17.5) M	12,553 FIU	48	587	479	148(111)	1,399	1,189	355(223)	45	Post vaccination IgG Median (FIU) [1, 13]: 10,405 FIU; Correlation between immune responses and OS: Negative (mOS) [1]: 6.6 months; Correlation between immune responses and OS: Positive (mOS) [1]: 19.3 months
